Results published in patent publication US12173018B2, “Penicillin-binding protein inhibitors” (priority 2018, dated 2024).
Converted amounts (≈) assume the structure as drawn. Like-named read-outs stand apart in the source and are kept apart here.

How the values were obtained:
E. coli 901C = assay: microbe, parasite or virus in culture; format: cell-based; details: Escherichia coli, read-out: MIC E. coli 901C
In short: (§1)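 Strains are tested by standard CLSI broth microdilution. Log-phase cells, diluted by OD600 to 5×10^5 CFU/mL, meet 2-fold compound series and incubate 16-20 hours at 37° C before the lowest growth-free concentration is recorded.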

E. coli AG100A = assay: microbe, parasite or virus in culture; format: cell-based; details: Escherichia coli, read-out: MIC E. coli AG100A
In short: as §1

E. coli D22 = assay: microbe, parasite or virus in culture; format: cell-based; details: Escherichia coli
In short: as §1

K. pneumoniae SI-117 = assay: microbe, parasite or virus in culture; format: cell-based; details: Klebsiella pneumoniae, SI117, read-out: MIC K. pneumoniae SI-117
In short: as §1

K. pneumoniae UMM = assay: microbe, parasite or virus in culture; format: cell-based; details: Klebsiella pneumoniae, read-out: MIC K. pneumoniae UMM
In short: as §1

[1] = test system: P. aeruginosa (ΔmexAB-oprM); assay: microbe, parasite or virus in culture; format: cell-based; details: Pseudomonas aeruginosa, read-out: MIC P. aeruginosa ΔmexAB-OprM
In short: as §1

P. aeruginosa ATCC 35151 = assay: microbe, parasite or virus in culture; format: cell-based; details: Pseudomonas aeruginosa
In short: as §1

K. pneumoniae 848844 = assay: microbe, parasite or virus in culture; format: cell-based, Klebsiella pneumoniae
In short: as §1

P. aeruginosa PAO1 = assay: Broth microdilution MIC, P. aeruginosa PAO1; format: cell-based; details: Pseudomonas aeruginosa; P. aeruginosa PAO1, broth microdilution; read-out: MIC P. aeruginosa PAO1
In short: as §1

A. baumannii ATCC 19606 = assay: Broth microdilution MIC, A. baumannii ATCC 19606; format: cell-based; details: Acinetobacter baumannii
In short: as §1

N. gonorrhoeae WHO F = assay: Liquid broth MIC, N. gonorrhoeae WHO F; format: cell-based; details: Neisseria gonorrhoeae, read-out: Minimum Inhibitory Concentration, N. gonorrhoeae WHO F
In short: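 Growth inhibition was scored by eye as the lowest compound concentration free of bacterial growth. Cultures from Kellogg's-supplemented GC agar, diluted to 5×10^5 CFU/mL, were exposed to serially diluted compound for 40-42 h at 36° C under 5% CO2.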

[2] = hyper-permeable E. coli 901C, broth microdilution
[3] = hyper-permeable E. coli D22, broth microdilution, read-out: MIC E. coli D22
[4] = K. pneumoniae UMM producing SHV-5 and KPC-2
[5] = ATCC35151, hyper-permeable P. aeruginosa ATCC 35151, read-out: MIC P. aeruginosa ATCC 35151
[6] = Klebsiella pneumoniae, K. pneumoniae 848844 producing SHV-11 and KPC-2, read-out: MIC K. pneumoniae 848844
[7] = ATCC19606, A. baumannii ATCC 19606, broth microdilution, read-out: MIC A. baumannii ATCC 19606
[8] = N. gonorrhoeae WHO F, liquid broth
[9] = Klebsiella pneumoniae, 848844, read-out: MIC K. pneumoniae 848844

SMILES | MIC (E. coli 901C; [2]) [µg/mL] | MIC (E. coli AG100A) [µg/mL] | MIC (E. coli D22; [3]) [µg/mL] | MIC (K. pneumoniae SI-117) [µg/mL] | MIC (K. pneumoniae UMM; [4]) [µg/mL] | MIC [1] [µg/mL] | MIC (P. aeruginosa ATCC 35151; [5]) [µg/mL] | MIC (K. pneumoniae 848844; [6]) [µg/mL] | MIC (P. aeruginosa PAO1) [µg/mL] | MIC (A. baumannii ATCC 19606; [7]) [µg/mL] | MIC (N. gonorrhoeae WHO F; [8]) [µg/mL] | MIC (E. coli 901C; 901C) [µg/mL] | MIC (E. coli D22; D22, read-out: MIC E. coli D22) [µg/mL] | MIC (K. pneumoniae UMM) [µg/mL] | MIC (P. aeruginosa ATCC 35151; ATCC35151, read-out: MIC P. aeruginosa ATCC 35151) [µg/mL] | MIC (K. pneumoniae 848844; [9]) [µg/mL] | MIC (A. baumannii ATCC 19606; ATCC19606, read-out: MIC A. baumannii ATCC 19606) [µg/mL] | MIC (N. gonorrhoeae WHO F) [µg/mL]
CCN1CCN(C(=O)N[C@@H](C(=O)N[C@H]2Cc3cccc(C(=O)O)c3OB2O)c2ncc(O)cc2F)C(=O)C1=O [Example 177, (R)-3-((R)-2-(4-ethyl-2,3-dioxopiperazine-1-carboxamido)-2-(3-fluoro-5-hydroxypyridin-2-yl)acetamido)-2-hydroxy-3,4-dihydro-2H-benzo[e][1,2]oxaborinine-8-carboxylic acid] | < 0.25 | 0.5 to 1 | 0.5 to 1 | 32 to 64 | 8 to 16 | 2 to 4 | 0.5 to 1 | 32 to 64 | > 128 | > 128 | < 0.125 |  |  |  |  |  |  | 
CCN1C[C@H](CCN)N(C(=O)NC(C(=O)N[C@H]2Cc3ccc(F)c(C(=O)O)c3OB2O)c2ccc(O)c(O)c2Cl)C(=O)C1=O (stereo partly drawn) [Example 238, (3R)-3-(2-((S)-6-(2-aminoethyl)-4-ethyl-2,3-dioxopiperazine-1-carboxamido)-2-(2-chloro-3,4-dihydroxyphenyl)acetamido)-7-fluoro-2-hydroxy-3,4-dihydro-2H-benzo[e][1,2]oxaborinine-8-carboxylic acid] |  | 2 to 4 |  | 8 to 16 |  | < 0.25 |  |  |  | 0.5 to 1 | 4 to 8 (≈ 6.29 to 12.6 µM) | 2 to 4 | 8 to 16 | 8 to 16 | < 0.25 | 8 to 16 |  | 
NCCCN1CCN(C(=O)N[C@@H](C(=O)N[C@H]2Cc3ccc(F)c(C(=O)O)c3OB2O)c2ccc(O)c(O)c2Cl)C(=O)C1=O [Example 236, (R)-3-((R)-2-(4-(3-aminopropyl)-2,3-dioxopiperazine-1-carboxamido)-2-(2-chloro-3,4-dihydroxyphenyl)acetamido)-7-fluoro-2-hydroxy-3,4-dihydro-2H-benzo[e][1,2]oxaborinine-8-carboxylic acid] | 0.5 to 1 | 0.5 to 1 | 0.5 to 1 | 0.5 to 1 | 0.5 to 1 | < 0.25 | < 0.25 | 0.5 to 1 |  | < 0.25 | 1 to 2 (≈ 1.61 to 3.22 µM) |  |  |  |  |  |  | 
NCCCN1CCN(C(=O)NC(C(=O)N[C@H]2Cc3cccc(C(=O)O)c3OB2O)c2ccc(O)c(O)c2Cl)C(=O)C1=O (stereo partly drawn) [Example 233, (3R)-3-(2-(4-(3-aminopropyl)-2,3-dioxopiperazine-1-carboxamido)-2-(2-chloro-3,4-dihydroxyphenyl)acetamido)-2-hydroxy-3,4-dihydro-2H-benzo[e][1,2]oxaborinine-8-carboxylic acid] | 0.5 to 1 | 0.5 to 1 | 0.5 to 1 | 2 to 4 | 2 to 4 | < 0.25 | < 0.25 | 2 to 4 |  | 2 to 4 | 4 to 8 (≈ 6.62 to 13.2 µM) |  |  |  |  |  |  | 
CCNC(=O)NCCN1CCN(C(=O)NC(C(=O)N[C@H]2Cc3cccc(C(=O)O)c3OB2O)c2ccc(O)c(O)c2Cl)C(=O)C1=O (stereo partly drawn) [Example 235, (3R)-3-(2-(2-chloro-3,4-dihydroxyphenyl)-2-(4-(2-(3-ethylureido)ethyl)-2,3-dioxopiperazine-1-carboxamido)acetamido)-2-hydroxy-3,4-dihydro-2H-benzo[e][1,2]oxaborinine-8-carboxylic acid] | 2 to 4 | 2 to 4 | 2 to 4 | 8 to 16 | 2 to 4 | < 0.25 | < 0.25 | 2 to 4 |  | 0.5 to 1 | 1 to 2 (≈ 1.51 to 3.03 µM) |  |  |  |  |  |  | 
CCN1C[C@H](CO)N(C(=O)NC(C(=O)N[C@H]2Cc3cccc(C(=O)O)c3OB2O)c2ncc(O)cc2F)C(=O)C1=O (stereo partly drawn) [Example 234, (3R)-3-(2-((R)-4-ethyl-6-(hydroxymethyl)-2,3-dioxopiperazine-1-carboxamido)-2-(3-fluoro-5-hydroxypyridin-2-yl)acetamido)-2-hydroxy-3,4-dihydro-2H-benzo[e][1,2]oxaborinine-8-carboxylic acid] | 2 to 4 | 8 to 16 | 8 to 16 | > 128 | 32 to 64 | 32 to 64 | 8 to 16 | > 128 |  |  |  |  |  |  |  |  | > 128 | 0.25 to 0.5 (≈ 0.436 to 0.872 µM)
CCN1C[C@H](CO)N(C(=O)NC(C(=O)N[C@H]2Cc3ccc(F)c(C(=O)O)c3OB2O)c2ccc(O)c(O)c2Cl)C(=O)C1=O (stereo partly drawn) [Example 237, (3R)-3-(2-(2-chloro-3,4-dihydroxyphenyl)-2-((R)-4-ethyl-6-(hydroxymethyl)-2,3-dioxopiperazine-1-carboxamido)acetamido)-7-fluoro-2-hydroxy-3,4-dihydro-2H-benzo[e][1,2]oxaborinine-8-carboxylic acid] | < 0.25 | < 0.25 | < 0.25 | 2 to 4 | 2 to 4 | < 0.25 | < 0.25 | 2 to 4 |  | < 0.25 | 0.25 to 0.5 (≈ 0.401 to 0.803 µM) |  |  |  |  |  |  | 
CNCCN1CCN(C(=O)NC(C(=O)N[C@H]2Cc3cccc(C(=O)O)c3OB2O)c2ccc(O)c(O)c2Cl)C(=O)C1=O (stereo partly drawn) [Example 239, (3R)-3-(2-(2-chloro-3,4-dihydroxyphenyl)-2-(4-(2-(methylamino)ethyl)-2,3-dioxopiperazine-1-carboxamido)acetamido)-2-hydroxy-3,4-dihydro-2H-benzo[e][1,2]oxaborinine-8-carboxylic acid] | 2 to 4 | 2 to 4 | 2 to 4 | > 128 | 2 to 4 | < 0.25 | < 0.25 | 2 to 4 |  | 0.5 to 1 | 4 to 8 (≈ 6.62 to 13.2 µM) |  |  |  |  |  |  | 
CCN1CCN(C(=O)NC(C(=O)N[C@H]2Cc3cccc(C(=O)O)c3OB2O)c2ncc(O)cc2F)C(=O)C1=O (stereo partly drawn) [Example 135, (3R)-3-(2-(4-ethyl-2,3-dioxopiperazine-1-carboxamido)-2-(3-fluoro-5-hydroxypyridin-2-yl)acetamido)-2-hydroxy-3,4-dihydro-2H-benzo[e][1,2]oxaborinine-8-carboxylic acid] | < 0.25 | 2 to 4 | 0.5 to 1 | 32 to 64 | 8 to 16 |  |  | 32 to 64 |  |  | < 0.125 |  |  |  |  |  |  | 
O=C(O)c1cccc2c1OB(O)[C@@H](NC(=O)C(NC(=O)N1CCN(CCF)C(=O)C1=O)c1ccc(O)c(O)c1Cl)C2 (stereo partly drawn) [Example 71, (3R)-3-(2-(2-chloro-3,4-dihydroxyphenyl)-2-(4-(2-fluoroethyl)-2,3-dioxopiperazine-1-carboxamido)acetamido)-2-hydroxy-3,4-dihydro-2H-benzo[e][1,2]oxaborinine-8-carboxylic acid] | 0.5 to 1 | 2 to 4 |  |  | 32 to 64 | 2 to 4 | 0.5 to 1 |  | 32 to 64 | 0.5 to 1 |  |  |  |  |  |  |  | 
CCCN1CCN(C(=O)NC(C(=O)N[C@H]2Cc3ccc(F)c(C(=O)O)c3OB2O)c2ccc(O)c(O)c2Cl)C(=O)C1=O (some centres unmarked) [Example 125] | 0.5 to 1 | 2 to 4 | 0.5 to 1 | 2 to 4 | 32 to 64 | < 0.25 | < 0.25 |  | 0.5 to 1 | < 0.25 | 0.25 to 0.5 (≈ 0.412 to 0.824 µM) |  |  |  |  |  |  | 
CCN1CCN(C(=O)NC(C(=O)N[C@H]2Cc3cccc(C(=O)O)c3OB2O)c2ccc(B(O)O)cc2)C(=O)C1=O (some centres unmarked) [Example 112] |  | 2 to 4 |  | > 128 |  |  |  |  |  |  | < 0.125 | < 0.25 | 2 to 4 | 32 to 64 |  | > 128 |  | 
CCN1CCN(C(=O)NC(C(=O)N[C@H]2Cc3ccc(F)c(C(=O)O)c3OB2O)c2csc(N)n2)C(=O)C1=O (stereo partly drawn) [Example 109, (3R)-3-(2-(2-aminothiazol-4-yl)-2-(4-ethyl-2,3-dioxopiperazine-1-carboxamido)acetamido)-7-fluoro-2-hydroxy-3,4-dihydro-2H-benzo[e][1,2]oxaborinine-8-carboxylic acid] | 0.5 to 1 | 8 to 16 | 2 to 4 | 8 to 16 | 8 to 16 |  |  | 32 to 64 |  |  | 0.25 to 0.5 (≈ 0.456 to 0.912 µM) |  |  |  |  |  |  | 
